# Source: patent US20200165194A1, “ADDITIVE COMPOSITION FOR CULTURE MEDIUM, ADDITIVE COMPOUND FOR CULTURE MEDIUM, AND METHOD FOR CULTURE OF CELLS OR TISSUE USING SAME” (NISSAN CHEMICAL CORPORATION, priority 2017, published 2020)
# Where two headings read alike, the source gives them in different places.
# How the values were obtained:
# [1] = tested on: Chinese hamster ovary-derived cell line CHO-K1; assay: Animal cell lines, 3D culture, ATP assay (Experimental Example 15); assay type: cell-based; conditions: Cricetulus griseus, CHO-K1, 96 h, CHO-K1, 4 days, read-out: number of viable cells (RLU), relative value to control (100%)
# [2] = tested on: Cercopithecus aethiops kidney epithelium-derived cell line Vero; assay: as above; assay type: cell-based; conditions: 4 days
# plural animal cell lines = assay: Animal cell lines, summary over the cell lines (Experimental Example 15); assay type: cell-based; conditions: animal cell lines under three-dimensional conditions
# [3] = tested on: Bone marrow-derived human mesenchymal stem cells (BM-hMSC); assay: Human mesenchymal stem cell-2: 3D, EZSPHERE and 2D culture, ATP assay (Experimental Example 10); assay type: cell-based; conditions: for viability at 1 µM / viability at 5 µM / viability at 10 µM / viability at 20 µM: Homo sapiens, Mesenchymal stem cells, 96 h, BM-hMSC, 4 days, non-addition = 100%, read-out: relative value of RLU (number of viable cells)
# Procedure: Bone marrow-derived human mesenchymal stem cells (BM-hMSC, manufactured by PromoCell) were precultured by a single layer culture method (2D) using a mesenchymal stem cell proliferation medium (manufactured by PromoCell). In three-dimensional culture method (3D), hMSC was suspended in a medium composition added with deacylated gellan gum, and seeded in a […] flat bottom Ultr-low Attachment surface plate (manufactured by Corning Incorporated, #3474) at 6000 cells/90 μL/well. In the three-dimensional culture method using EZSPHERE (EZSPHERE), hMSC was suspended in a deacylated gellan gum-free medium composition, and seeded in a 96-well EZSPHERE plate (manufactured by AGC TECHNO GLASS CO., LTD., #4860-900) at 2000 cells/90 μL/well. In 2D, hMSC was suspended in a deacylated gellan gum-free medium composition, and seeded in a 96-well flat bottom plate (manufactured by Corning Incorporated, #3585) at 2000 cells/90 μL/well. […] As a control, DMSO was added at a final concentration of 0.1%.
# [4] = tested on: human ovarian cancer cell line SKOV3; assay: Action on SKOV3 cell-2: 3D (deacylated gellan gum) and 2D culture, EGF medium, ATP assay (Experimental Example 3); conditions: for viability at 1 µM / viability at 5 µM / viability at 10 µM / viability at 20 µM: Homo sapiens, SK-OV-3, 96 h, 4 days, compound non-addition = 100%
# Procedure: According to the method of patent document 1 (WO 2014/017513), a composition of McCoy's 5a medium (manufactured by Sigma-Aldrich) containing 0.015% (w/v) deacylated gellan gum (KELCOGEL CG-LA, manufactured by Sansho Co., Ltd.) and 15% (v/v) FBS, 30 ng/mL human EGF (manufactured by PEPROTECH) was prepared using FCeM-series Preparation Kit (manufactured by Wako Pure Chemical Industries, Ltd.). In a single layer culture, a non-addition medium composition not containing deacylated gellan gum was prepared. Then, human ovarian cancer cell line SKOV3 (manufactured by DS PHARMA BIO MEDICAL) was suspended in the above-mentioned medium composition added with deacylated gellan gum, and dispensed into the wells of a 384 well flat bottom Ultr-low Attachment surface microplate (manufactured by Corning Incorporated, #3827) at 1000 cells/36 μL/well (three-dimensional culture (3D)). In a single layer culture (2D), human ovarian cancer cell line SKOV3 was suspended in the above-mentioned medium composition not containing deacylated gellan gum, and dispensed into the wells of a 384 well flat bottom microplate (manufactured by Corning Incorporated, #3712) at 400 cells/36 μL per well. After dispensing, the compound to be used in the present invention dissolved in dimethyl sulfoxide (DMSO) was added by 4 μL each at a final concentration of 0, 1, 5, 10, 20 μM, and continuously cultured for 4 days. Each plate was cultured in a standing state in a CO2 incubator (37° C., 5% CO2) for 4 days. An ATP reagent (40 μL) (CellTiter-Glo (registered trade mark) Luminescent Cell Viability Assay, manufactured by Promega) was added to the culture medium on day 4, and the mixture was stirred by a plateshaker (manufactured by AS ONE Corporation, Micro plate mixer NS-P) at room temperature for 15 min. The luminescence intensity (RLU value) was measured by EnSpire (manufactured by Perkin Elmer) and the luminescence value of the medium alone was subtracted to measure the number of viable cells.
# [5] = tested on: Human umbilical vein endothelial cells; assay: Vascular endothelial cell, 3D culture, ATP assay (Experimental Example 14); assay type: cell-based; conditions: for viability at 5 µM / viability at 10 µM: Homo sapiens, HUVEC, 96 h, 4 days, no-addition = 100%, read-out: relative value of RLU (number of viable cells)
# [6] = low attachment flat bottom plate (deacylated gellan gum-containing medium)
# [7] = read-out: relative value of RLU (number of viable cells), 2D single layer culture
# [8] = read-out: relative value of RLU (number of viable cells), 3D culture (deacylated gellan gum)
smiles,measurement,setting,value
CC/C(=N\NC(=O)NCc1ccccc1)c1ccc(O)c(C)c1O [k-1:I-1],viability at 5 µM,[1]; low attachment U-bottom plate,< 119%
same,viability at 10 µM,[1]; low attachment U-bottom plate,< 119%
same,viability at 5 µM,[1]; [6],< 119%
same,viability at 10 µM,[1]; [6],< 119%
same,viability at 5 µM,"[2]; Chlorocebus sabaeus, 96 h, low attachment U-bottom plate, read-out: number of viable cells (RLU), relative value to control (100%)",> 120%
same,viability at 5 µM,"[2]; Chlorocebus sabaeus, 96 h, low attachment flat bottom plate (deacylated gellan gum-containing medium), read-out: number of viable cells (RLU), relative value to control (100%)",< 119%
same,viability at 10 µM,"[2]; Chlorocebus sabaeus, 96 h, low attachment flat bottom plate (deacylated gellan gum-containing medium), 10 μM, read-out: number of viable cells (RLU), relative value to control (100%)",< 119%
same,"number of viable cells (RLU), relative value to control (100%)","[2]; low attachment U-bottom plate, 10 μM",⊙
same,proliferation activity (in words),plural animal cell lines,promoted proliferation activity in plural animal cell lines
same,viability at 1 µM,[3]; 2D,107%
same,viability at 5 µM,[3]; 2D,98%
same,viability at 10 µM,[3]; 2D,104%
same,viability at 20 µM,[3]; 2D,107%
same,viability at 1 µM,[3]; 3D (deacylated gellan gum),100%
same,viability at 5 µM,[3]; 3D (deacylated gellan gum),123%
same,viability at 10 µM,[3]; 3D (deacylated gellan gum),150%
same,viability at 20 µM,[3]; 3D (deacylated gellan gum),177%
same,viability at 1 µM,[3]; EZSPHERE plate,101%
same,viability at 5 µM,[3]; EZSPHERE plate,120%
same,viability at 10 µM,[3]; EZSPHERE plate,144%
same,viability at 20 µM,[3]; EZSPHERE plate,163%
same,proliferation activity (in words),[3]; three-dimensional cell culture conditions,promoted proliferation activity of BM-hMSC
same,viability at 1 µM,[4]; [7],99%
same,viability at 5 µM,[4]; [7],98%
same,viability at 10 µM,[4]; [7],94%
same,viability at 20 µM,[4]; [7],92%
same,viability at 1 µM,[4]; [8],106%
same,viability at 5 µM,[4]; [8],111%
same,viability at 10 µM,[4]; [8],123%
same,viability at 20 µM,[4]; [8],141%
same,cell proliferation promoting effect (in words),[4]; single layer culture (2D) of SKOV3 cells,a favorable cell proliferation promoting effect was not observed
same,cell proliferation promoting effect (in words),[4]; three-dimensional culture (3D) of SKOV3 cells,exhibited cell proliferation promoting effect at a wide concentration range
same,viability at 5 µM,[5]; low attachment U-bottom plate,327%
same,viability at 10 µM,[5]; low attachment U-bottom plate,304%
same,viability at 5 µM,[5]; [6],209%
same,viability at 10 µM,[5]; [6],268%
same,proliferation activity (in words),[5]; human umbilical vein endothelial cells under three-dimensional conditions,promoted proliferation activity in human umbilical vein endothelial cells
